Key:
Experiment in all cases: relative viability (nuclei count vs DMSO), 5 days (fraction); higher = more cells survive
LXF-289 = system: LXF-289
Outline: (§1)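 Dosing by pin tool came one day after lung cancer cell lines were seeded in 1536-well plates, using either one drug or a fixed anchor-drug dose plus five library-drug doses (not always all listed) in √10 steps. After 5 days, nuclei were counted on 4× images. Relative viability is treated-well nuclei count divided by vehicle-well nuclei count, and values are medians of duplicate plates.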

NCI-H2085 = system: NCI-H2085
Outline: as §1

LCLC-97TM1 = system: LCLC-97TM1
Outline: as §1

NCI-H596 = system: NCI-H596
Outline: as §1

NCI-H1793 = system: NCI-H1793
Outline: as §1

NCI-H441 = system: NCI-H441
Outline: as §1

NCI-H1666 = system: NCI-H1666
Outline: as §1

HOP-62 = system: HOP-62
Outline: as §1

PC-14 = system: PC-14
Outline: as §1

COR-L23 = system: COR-L23
Outline: as §1

NCI-H2126 = system: NCI-H2126
Outline: as §1

H3255 = system: H3255
Outline: as §1

NCI-H661 = system: NCI-H661
Outline: as §1

NCI-H1437 = system: NCI-H1437
Outline: as §1

EPLC-272H = system: EPLC-272H
Outline: as §1

NCI-H1650 = system: NCI-H1650
Outline: as §1

ChaGo-K-1 = system: ChaGo-K-1
Outline: as §1

HARA = system: HARA
Outline: as §1

HCC-78 = system: HCC-78
Outline: as §1

NCI-H1944 = system: NCI-H1944
Outline: as §1

NCI-H1395 = system: NCI-H1395
Outline: as §1

NCI-H2087 = system: NCI-H2087
Outline: as §1

NCI-H3122 = system: NCI-H3122
Outline: as §1

**Q.** Which results are given for Cc1cn(-c2cc(NC(=O)c3ccc(C)c(Nc4nccc(-c5cccnc5)n4)c3)cc(C(F)(F)F)c2)cn1 [Nilotinib] + N=C(N)NC(=N)NCCc1ccccc1 [Phenformin] (partner 250 µM)?
**A.** relative viability (LXF-289; first compound 0.001 µM): 0.545; relative viability (LXF-289; first compound 0.003162 µM): 0.562; relative viability (LXF-289; first compound 0.01 µM): 0.558; relative viability (LXF-289; first compound 0.03162 µM): 0.506; relative viability (LXF-289; first compound 0.1 µM): 0.454; relative viability (NCI-H2085; first compound 0.001 µM): 0.76; relative viability (NCI-H2085; first compound 0.003162 µM): 0.749; relative viability (NCI-H2085; first compound 0.01 µM): 0.769; relative viability (NCI-H2085; first compound 0.03162 µM): 0.493; relative viability (NCI-H2085; first compound 0.1 µM): 0.581; relative viability (LCLC-97TM1; first compound 0.001 µM): 0.393; relative viability (LCLC-97TM1; first compound 0.003162 µM): 0.468; relative viability (LCLC-97TM1; first compound 0.01 µM): 0.467; relative viability (LCLC-97TM1; first compound 0.03162 µM): 0.426; relative viability (LCLC-97TM1; first compound 0.1 µM): 0.453; relative viability (NCI-H596; first compound 0.001 µM): 0.588; relative viability (NCI-H596; first compound 0.003162 µM): 0.697; relative viability (NCI-H596; first compound 0.01 µM): 0.909; relative viability (NCI-H596; first compound 0.03162 µM): 0.475; relative viability (NCI-H596; first compound 0.1 µM): 0.432; relative viability (NCI-H1793; first compound 0.001 µM): 0.36; relative viability (NCI-H1793; first compound 0.003162 µM): 0.363; relative viability (NCI-H1793; first compound 0.01 µM): 0.357; relative viability (NCI-H1793; first compound 0.03162 µM): 0.196; relative viability (NCI-H1793; first compound 0.1 µM): 0.232; relative viability (NCI-H441; first compound 0.001 µM): 0.798; relative viability (NCI-H441; first compound 0.003162 µM): 0.89; relative viability (NCI-H441; first compound 0.01 µM): 0.896; relative viability (NCI-H441; first compound 0.03162 µM): 0.648; relative viability (NCI-H441; first compound 0.1 µM): 0.881; relative viability (NCI-H1666; first compound 0.001 µM): 0.605; relative viability (NCI-H1666; first compound 0.003162 µM): 0.615; relative viability (NCI-H1666; first compound 0.01 µM): 0.578; relative viability (NCI-H1666; first compound 0.03162 µM): 0.545; relative viability (NCI-H1666; first compound 0.1 µM): 0.652; relative viability (HOP-62; first compound 0.001 µM): 0.512; relative viability (HOP-62; first compound 0.003162 µM): 0.706; relative viability (HOP-62; first compound 0.01 µM): 0.771; relative viability (HOP-62; first compound 0.03162 µM): 0.444; relative viability (HOP-62; first compound 0.1 µM): 0.441; relative viability (PC-14; first compound 0.001 µM): 0.573; relative viability (PC-14; first compound 0.003162 µM): 0.538; relative viability (PC-14; first compound 0.01 µM): 0.546; relative viability (PC-14; first compound 0.03162 µM): 0.459; relative viability (PC-14; first compound 0.1 µM): 0.542; relative viability (COR-L23; first compound 0.001 µM): 0.448; relative viability (COR-L23; first compound 0.003162 µM): 0.52; relative viability (COR-L23; first compound 0.01 µM): 0.591; relative viability (COR-L23; first compound 0.03162 µM): 0.42; relative viability (COR-L23; first compound 0.1 µM): 0.45; relative viability (NCI-H2126; first compound 0.001 µM): 0.546; relative viability (NCI-H2126; first compound 0.003162 µM): 0.535; relative viability (NCI-H2126; first compound 0.01 µM): 0.538; relative viability (NCI-H2126; first compound 0.03162 µM): 0.534; relative viability (NCI-H2126; first compound 0.1 µM): 0.562; relative viability (H3255; first compound 0.001 µM): 0.382; relative viability (H3255; first compound 0.003162 µM): 0.303; relative viability (H3255; first compound 0.03162 µM): 0.403; relative viability (H3255; first compound 0.1 µM): 0.407; relative viability (NCI-H661; first compound 0.001 µM): 0.307; relative viability (NCI-H661; first compound 0.003162 µM): 0.268; relative viability (NCI-H661; first compound 0.03162 µM): 0.279; relative viability (NCI-H661; first compound 0.1 µM): 0.288; relative viability (NCI-H1437; first compound 0.001 µM): 0.325; relative viability (NCI-H1437; first compound 0.003162 µM): 0.335; relative viability (NCI-H1437; first compound 0.01 µM): 0.331; relative viability (NCI-H1437; first compound 0.03162 µM): 0.23; relative viability (NCI-H1437; first compound 0.1 µM): 0.224; relative viability (EPLC-272H; first compound 0.001 µM): 0.305; relative viability (EPLC-272H; first compound 0.003162 µM): 0.283; relative viability (EPLC-272H; first compound 0.01 µM): 0.262; relative viability (EPLC-272H; first compound 0.03162 µM): 0.234; relative viability (EPLC-272H; first compound 0.1 µM): 0.298; relative viability (NCI-H1650; first compound 0.001 µM): 0.464; relative viability (NCI-H1650; first compound 0.003162 µM): 0.437; relative viability (NCI-H1650; first compound 0.01 µM): 0.385; relative viability (NCI-H1650; first compound 0.03162 µM): 0.32; relative viability (NCI-H1650; first compound 0.1 µM): 0.307; relative viability (ChaGo-K-1; first compound 0.001 µM): 0.469; relative viability (ChaGo-K-1; first compound 0.003162 µM): 0.442; relative viability (ChaGo-K-1; first compound 0.01 µM): 0.473; relative viability (ChaGo-K-1; first compound 0.03162 µM): 0.394; relative viability (ChaGo-K-1; first compound 0.1 µM): 0.315; relative viability (HARA; first compound 0.001 µM): 0.402; relative viability (HARA; first compound 0.003162 µM): 0.555; relative viability (HARA; first compound 0.01 µM): 0.613; relative viability (HARA; first compound 0.03162 µM): 0.29; relative viability (HARA; first compound 0.1 µM): 0.322; relative viability (HCC-78; first compound 0.001 µM): 0.786; relative viability (HCC-78; first compound 0.003162 µM): 0.643; relative viability (HCC-78; first compound 0.01 µM): 0.706; relative viability (HCC-78; first compound 0.03162 µM): 0.637; relative viability (HCC-78; first compound 0.1 µM): 0.636; relative viability (NCI-H1944; first compound 0.001 µM): 0.193; relative viability (NCI-H1944; first compound 0.003162 µM): 0.216; relative viability (NCI-H1944; first compound 0.01 µM): 0.222; relative viability (NCI-H1944; first compound 0.03162 µM): 0.181; relative viability (NCI-H1395; first compound 0.001 µM): 0.453; relative viability (NCI-H1395; first compound 0.003162 µM): 0.403; relative viability (NCI-H1395; first compound 0.01 µM): 0.49; relative viability (NCI-H1395; first compound 0.03162 µM): 0.43; relative viability (NCI-H1395; first compound 0.1 µM): 0.415; relative viability (NCI-H2087; first compound 0.001 µM): 0.403; relative viability (NCI-H2087; first compound 0.003162 µM): 0.518; relative viability (NCI-H2087; first compound 0.01 µM): 0.519; relative viability (NCI-H2087; first compound 0.03162 µM): 0.301; relative viability (NCI-H2087; first compound 0.1 µM): 0.215; relative viability (NCI-H3122; first compound 0.001 µM): 0.36; relative viability (NCI-H3122; first compound 0.003162 µM): 0.375; relative viability (NCI-H3122; first compound 0.01 µM): 0.341; relative viability (NCI-H3122; first compound 0.03162 µM): 0.352; relative viability (NCI-H3122; first compound 0.1 µM): 0.309
